SMILES strings stand for the structures.

By IC50 is commonly meant the concentration that inhibits the measured activity by half.

For one experiment, the target named is Granzyme B (human lymphocytes) (Homo sapiens (Human), UniProt P10144). As to the kind of experiment: human Granzyme B biochemical assay.
Chain of Granzyme B (human lymphocytes) (P10144 21-247): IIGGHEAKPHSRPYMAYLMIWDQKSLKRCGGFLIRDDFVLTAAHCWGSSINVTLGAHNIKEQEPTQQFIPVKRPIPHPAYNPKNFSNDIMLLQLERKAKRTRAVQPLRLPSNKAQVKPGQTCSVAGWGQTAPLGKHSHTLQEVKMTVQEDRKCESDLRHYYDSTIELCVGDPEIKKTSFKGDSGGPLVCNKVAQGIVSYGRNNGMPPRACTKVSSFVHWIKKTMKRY
Conditions: not given
A digest of the protocol:
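Enzyme (10 nM working stock, assay buffer with 0.1% BSA) pre-incubated with compound for 30 min at 22 °C, then Ac-IETD-AFC (800 µM working stock) added for 60 min at 22 °C in the dark. Fluorescence read at Ex 400/Em 505 nm; 8-point 3.16-fold series (40 µM top working stock); IC50 from % inhibition versus standard-inhibitor and DMSO controls.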
Regarding `CC(C)[C@H](NC(=O)CF)C(=O)N[C@H]1COc2cccc3c2N(C1=O)[C@H](C(=O)NCc1c[nH]nn1)C3` [Compound C102, (1S,8S)-8-[(S)-2-(2-Fluoro-acetylamino)-3-methyl-butyrylamino]-9-oxo-1,2,8,9-tetrahydro-7H-6-oxa-9a-aza-benzo[cd]azulene-1-carboxylic acid (1H-[1,2,3]triazol-4-ylmethyl)-amide], the half-maximal inhibitory concentration (IC50) was in the range of 0.001 to 0.3 µM.

The experiment is the same for the next values; noted with them: Granzyme B (human lymphocytes) 5 nM, substrate Ac-IETD-AFC 200 μM, Cpd incubation with enzyme 30 mins, 22° C., read time 60 mins; read-out: IC50.
For `COC(=O)CNC(=O)[C@@H]1Cc2cccc3c2N1C(=O)[C@@H](NC(=O)[C@@H](NC(C)=O)C(C)C)CC3` [Compound C086, {[(2S,5S)-5-((S)-2-Acetylamino-3-methyl-butyrylamino)-4-oxo-1,2,4,5,6,7-hexahydro-azepino[3,2,1-hi]indole-2-carbonyl]-amino}-acetic acid methyl ester], the concentration for half-maximal inhibition (IC50) is greater than 5 µM.
With `CC(=O)N[C@H](C(=O)N[C@H]1CCc2cccc3c2N(C1=O)[C@H](C(=O)N[C@H](C)C(=O)O)C3)C(C)C` [Compound C087, (R)-2-{[(2S,5S)-5-((S)-2-Acetylamino-3-methyl-butyrylamino)-4-oxo-1,2,4,5,6,7-hexahydro-azepino[3,2,1-hi]indole-2-carbonyl]-amino}-propionicacid], the 50% inhibitory concentration (IC50) is greater than 5 µM.
With `COC(=O)[C@@H](C)NC(=O)[C@@H]1Cc2cccc3c2N1C(=O)[C@@H](NC(=O)[C@@H](NC(C)=O)C(C)C)CC3` [Compound C088, (R)-2-{[(2S,5S)-5-((S)-2-Acetylamino-3-methyl-butyrylamino)-4-oxo-1,2,4,5,6,7-hexahydro-azepino[3,2,1-hi]indole-2-carbonyl]-amino}-propionicacid methyl ester], the IC50 was greater than 5 µM.
For the molecule `CC(=O)N[C@H](C(=O)N[C@H]1CCc2cccc3c2N(C1=O)[C@H](C(=O)N[C@@H](C)C(=O)O)C3)C(C)C` [Compound C089, (S)-2-{[(2S,5S)-5-((S)-2-Acetylamino-3-methyl-butyrylamino)-4-oxo-1,2,4,5,6,7-hexahydro-azepino[3,2,1-hi]indole-2-carbonyl]-amino}-propionicacid], the half-maximal inhibitory concentration (IC50) is greater than 5 µM.
Still for that read-out and setting: with `COC(=O)[C@H](C)NC(=O)[C@@H]1Cc2cccc3c2N1C(=O)[C@@H](NC(=O)[C@@H](NC(C)=O)C(C)C)CC3` [Compound C090, (S)-2-{[(2S,5S)-5-((S)-2-Acetylamino-3-methyl-butyrylamino)-4-oxo-1,2,4,5,6,7-hexahydro-azepino[3,2,1-hi]indole-2-carbonyl]-amino}-propionic acid methyl ester] the figure was greater than 5 µM; with `COC(=O)[C@H](CO)NC(=O)[C@@H]1Cc2cccc3c2N1C(=O)[C@@H](NC(=O)[C@@H](NC(C)=O)C(C)C)CC3` [Compound C091, (S)-2-{[(2S,5S)-5-((S)-2-Acetylamino-3-methyl-butyrylamino)-4-oxo-1,2,4,5,6,7-hexahydro-azepino[3,2,1-hi]indole-2-carbonyl]-amino}-3-hydroxy-propionic acid methyl ester], greater than 5 µM; with `CC(=O)N[C@H](C(=O)N[C@H]1CCc2cccc3c2N(C1=O)[C@H](C(=O)N[C@@H](CC(=O)O)C(=O)O)C3)C(C)C` [Compound C092, (S)-2-{[(2S,5S)-5-((S)-2-Acetylamino-3-methyl-butyrylamino)-4-oxo-1,2,4,5,6,7-hexahydro-azepino[3,2,1-hi]indole-2-carbonyl]-amino}-succinic acid], greater than 5 µM.
The same measure, in the same setting: as for `COC(=O)C[C@H](NC(=O)[C@@H]1Cc2cccc3c2N1C(=O)[C@@H](NC(=O)[C@@H](NC(C)=O)C(C)C)CC3)C(=O)OC` [Compound C093, (S)-2-{[(2S,5S)-5-((S)-2-Acetylamino-3-methyl-butyrylamino)-4-oxo-1,2,4,5,6,7-hexahydro-azepino[3,2,1-hi]indole-2-carbonyl]-amino}-succinic acid dimethyl ester], the figure is greater than 5 µM; as for `CC(=O)N[C@H](C(=O)N[C@H]1CCc2cccc3c2N(C1=O)[C@H](C(=O)N[C@@H](CCC(=O)O)C(=O)O)C3)C(C)C` [Compound C094, (S)-2-{[(2S,5S)-5-((S)-2-Acetylamino-3-methyl-butyrylamino)-4-oxo-1,2,4,5,6,7-hexahydro-azepino[3,2,1-hi]indole-2-carbonyl]-amino}-pentanedioic acid], greater than 5 µM; as for `COC(=O)CC[C@H](NC(=O)[C@@H]1Cc2cccc3c2N1C(=O)[C@@H](NC(=O)[C@@H](NC(C)=O)C(C)C)CC3)C(=O)OC` [Compound C095, (S)-2-{[(2S,5S)-5-((S)-2-Acetylamino-3-methyl-butyrylamino)-4-oxo-1,2,4,5,6,7-hexahydro-azepino[3,2,1-hi]indole-2-carbonyl]-amino}-pentanedioic acid dimethyl ester], greater than 5 µM.
As for `CC(C)[C@H](NC(=O)c1ccccc1)C(=O)N[C@H]1COc2cccc3c2N(C1=O)[C@H](C(=O)NCc1c[nH]nn1)C3` [Compound C100, (1S,8S)-8-((S)-2-Benzoylamino-3-methyl-butyrylamino)-9-oxo-1,2,8,9-tetrahydro-7H-6-oxa-9a-aza-benzo[cd]azulene-1-carboxylic acid (1H-[1,2,3,]triazol-4-ylmethyl)-amide], the half-inhibitory concentration (IC50) lay within 0.001 to 0.3 µM.
As to `CC(=O)N[C@H](C(=O)N[C@H]1COc2cccc3c2N(C1=O)[C@H](C(=O)NCc1c[nH]nn1)C3)C(C)C` [Compound C101, (1S,8S)-8-((S)-2-Acetylamino-3-methyl-butyrylamino)-9-oxo-1,2,8,9-tetrahydro-7H-6-oxa-9a-aza-benzo[cd]azulene-1-carboxylic acid (1H-[1,2,3]triazol-4-ylmethyl)-amide], the IC50 lay within 0.001 to 0.3 µM.
For `CC[C@H](C)[C@H](NC(=O)COCCF)C(=O)N[C@H]1CCc2cccc3c2N(C1=O)[C@H](C(=O)NCc1ccc[nH]1)C3` [Compound C104, (2S,5S)-5-{(2S,3S)-2-[2-(2-Fluoro-ethoxy)-acetylamino]-3-methyl-pentanoylamino}-4-oxo-1,2,4,5,6,7-hexahydro-azepino[3,2,1-hi]indole-2-carboxylic acid (1H-pyrrol-2-ylmethyl)-amide], the concentration for half-maximal inhibition (IC50) was greater than 5 µM.
Same read-out and setting: with `CC[C@H](C)[C@H](NC(=O)COCCF)C(=O)N[C@H]1CCc2cccc3c2N(C1=O)[C@H](C(=O)NCc1ccco1)C3` [Compound C105, (2S,5S)-5-{(2S,3S)-2-[2-(2-Fluoro-ethoxy)-acetylamino]-3-methyl-pentanoylamino}-4-oxo-1,2,4,5,6,7-hexahydro-azepino[3,2,1-hi]indole-2-carboxylic acid (furan-2-ylmethyl)-amide] the figure was greater than 5 µM; with `CC[C@H](C)[C@H](NC(=O)COCCF)C(=O)N[C@H]1CCc2cccc3c2N(C1=O)[C@H](C(=O)NCc1cccs1)C3` [Compound C106, (2S,5S)-5-{(2S,3S)-2-[2-(2-Fluoro-ethoxy)-acetylamino]-3-methyl-pentanoylamino}-4-oxo-1,2,4,5,6,7-hexahydro-azepino[3,2,1-hi]indole-2-carboxylic acid (thiophen-2-ylmethyl)-amide], greater than 5 µM.
The same measure, in the same setting: with `CC[C@H](C)[C@H](NC(=O)COCCF)C(=O)N[C@H]1CCc2cccc3c2N(C1=O)[C@H](C(=O)NCc1cc[nH]c1)C3` [Compound C107, (2S,5S)-5-{(2S,3S)-2-[2-(2-Fluoro-ethoxy)-acetylamino]-3-methyl-pentanoylamino}-4-oxo-1,2,4,5,6,7-hexahydro-azepino[3,2,1-hi]indole-2-carboxylic acid (1H-pyrrol-3-ylmethyl)-amide] the figure was greater than 5 µM.

These data come from patent US11667645B2, “Granzyme B directed imaging and therapy” (CytoSite Biopharma Inc., priority 2018, dated 2023).
